We go through 1 molecule from BindingDB's records for doi:10.7270/Q2BZ64GK (Burnham Center For Chemical Genomics, 2009).

SMILES strings stand for the structures.

The target of this assay is T1, Tyrosine-protein phosphatase non-receptor type 22 (Homo sapiens, UniProt Q9Y2R2).
T1 sequence (Q9Y2R2 whole entry): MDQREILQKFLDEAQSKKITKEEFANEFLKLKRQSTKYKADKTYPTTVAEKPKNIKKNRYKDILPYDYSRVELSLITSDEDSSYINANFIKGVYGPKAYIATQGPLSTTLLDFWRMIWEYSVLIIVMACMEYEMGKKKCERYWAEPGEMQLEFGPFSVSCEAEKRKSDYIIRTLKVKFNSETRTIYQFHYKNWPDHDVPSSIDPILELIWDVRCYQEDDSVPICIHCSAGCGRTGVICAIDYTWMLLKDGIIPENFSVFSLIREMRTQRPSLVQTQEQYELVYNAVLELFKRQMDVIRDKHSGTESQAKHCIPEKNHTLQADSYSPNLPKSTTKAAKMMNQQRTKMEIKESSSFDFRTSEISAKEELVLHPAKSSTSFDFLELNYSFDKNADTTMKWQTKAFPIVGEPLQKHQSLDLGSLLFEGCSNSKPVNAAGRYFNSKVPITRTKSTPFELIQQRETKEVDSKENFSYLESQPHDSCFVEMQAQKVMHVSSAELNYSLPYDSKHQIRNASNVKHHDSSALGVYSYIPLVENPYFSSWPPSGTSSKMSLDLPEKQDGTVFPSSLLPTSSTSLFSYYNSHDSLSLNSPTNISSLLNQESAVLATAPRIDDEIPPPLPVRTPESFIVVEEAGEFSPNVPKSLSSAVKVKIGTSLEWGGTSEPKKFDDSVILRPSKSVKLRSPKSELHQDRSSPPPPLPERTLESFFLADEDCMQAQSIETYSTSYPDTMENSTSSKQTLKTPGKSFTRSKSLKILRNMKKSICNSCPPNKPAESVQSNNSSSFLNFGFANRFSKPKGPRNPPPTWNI
Nature of the assay: PubChem AID 2135.

For orientation: IC50 means the concentration needed to halve the response being measured. Lower therefore signals greater potency in that assay. In turn, `CCOc1ccc2nc(NC(=O)CSc3cc(O)c4c(C)c(C)sc4n3)sc2c1` [2-[(2,3-dimethyl-4-oxidanylidene-5H-thieno[2,3-b]pyridin-6-yl)sulfanyl]-N-(6-ethoxy-1,3-benzothiazol-2-yl)ethanamide] came in with an IC50 of over 100 µM.
